In US8536202B2, “Triazole-substituted anthranilamides as pesticides” (Bayer Cropscience AG, priority 2010, dated 2013):
Read-outs that look alike come from different tables or passages of the source.

Legend:
[1] = tested on: larvae of the mustard beetle (Phaedon cochleariae); test: Phaedon test (PHAECO spray treatment); type: in vivo; conditions: 168 h, read-out: activity in %
In short: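 Compound dissolved in acetone/dimethylformamide with alkylaryl polyglycol ether emulsifier, then diluted with emulsifier-containing water to test concentration for spray treatment of Phaedon cochleariae larvae. Activity scored after 7 days as % larvae killed (100% = all dead, 0% = none).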

[2] = tested on: caterpillars of the armyworm (Spodoptera frugiperda); test: Spodoptera frugiperda test (SPODFR spray treatment); type: in vivo; conditions: 168 h; for pest or weed control at 100 g/ha: read-out: activity in %
In short: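 Maize leaf discs sprayed with compound diluted in emulsifier-containing water (acetone/DMF solvent, alkylaryl polyglycol ether emulsifier), dried, then infested with armyworm caterpillars. Kill scored after 7 days as % mortality, 100% = all caterpillars dead, 0% = none.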

[3] = log P determination by HPLC on reversed-phase columns (EEC Directive 79/831 Annex V.A8); type: physicochemical; conditions: pH 2.7
In short: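 log P from reversed-phase LC-MS retention at pH 2.7, 0.1% formic acid water/acetonitrile gradient 10–95% acetonitrile. Calibrated against C3–C16 unbranched alkan-2-ones, interpolating linearly between adjacent alkanones.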

[4] = reversed-phase C18 HPLC column, HPLC on reversed-phase columns (C 18), EEC Directive 79/831 Annex V.A8, read-out: logP
[5] = HPLC on reversed-phase columns (C 18), EEC Directive 79/831 Annex V.A8, read-out: logP

chromatographic logP [3, 4]	Structure (SMILES)	pest or weed control at 100 g/ha ([1]; 100 g/ha, after 7 days)	pest or weed control at 20 g/ha ([2]; 20 g/ha, after 7 days)	pest or weed control at 100 g/ha ([2]; 100 g/ha, after 7 days)	chromatographic logP [3]	pest or weed control at 100 g/ha [1]	pest or weed control at 100 g/ha [2]	chromatographic logP [3, 5]
4.49	CC(NC(=O)c1cc(Cl)cc(Cl)c1NC(=O)c1cc(Cn2ncc(C(F)(C(F)(F)F)C(F)(F)F)n2)nn1-c1ncccc1Cl)C1CC1 (stereo not drawn) [Example 274]	100%	100%	–	–	–	–	–
4.02	Cc1cc(C#N)cc(C(=O)NC(C)(C)C)c1NC(=O)c1cc(Cn2nnc3cc(Br)c(C(F)(F)F)cc32)nn1-c1ncccc1Cl [Example 109]	100%	–	100%	–	–	–	–
–	CCNC(=O)c1cc(C#N)cc(C)c1NC(=O)c1cc(Cn2nc(C(F)(F)F)c(C(F)(F)F)n2)nn1-c1ncccc1Cl [Example 397]	100%	–	100%	3.61	–	–	–
4.08	CC(NC(=O)c1cc(Cl)cc(Cl)c1NC(=O)c1cc(Cn2cc(C(F)(C(F)(F)F)C(F)(F)F)nn2)nn1-c1ncccc1Cl)C1CC1 (stereo not drawn) [Example 242]	100%	–	100%	–	–	–	–
–	CNC(=O)c1cc(Cl)cc(C)c1NC(=O)c1cc(Cn2nnc3c(Cl)c(Cl)c(Cl)cc32)nn1-c1ncccc1Cl [Example 88]	100%	–	100%	3.75	–	–	–
–	O=C(NC1CC1)c1cc(Cl)cc(Cl)c1NC(=O)c1cc(Cn2ncc(C(F)(F)F)n2)nn1-c1ncccc1Cl [Example 148]	100%	–	100%	3.18	–	–	–
–	CCNC(=O)c1cc(Cl)cc(C)c1NC(=O)c1cc(Cn2nc(C(F)(F)F)c(C(F)(F)F)n2)nn1-c1ncccc1Cl [Example 392]	100%	–	100%	3.98	–	–	–
–	Cc1cc(Cl)cc(C(=O)NC(C)(C)C)c1NC(=O)c1cc(Cn2ncc(C(F)(F)F)n2)nn1-c1ncccc1Cl [Example 140]	100%	–	100%	3.85	–	–	–
–	CNC(=O)c1cc(Cl)cc(C)c1NC(=O)c1cc(Cn2nc3ccc([N+](=O)[O-])cc3n2)nn1-c1ncccc1Cl [Example 75]	100%	–	100%	2.95	–	–	–
3.93	Cc1cc(C#N)cc(C(=O)NC(C)(C)C)c1NC(=O)c1cc(Cn2ncc(C(F)(F)F)n2)nn1-c1ccccc1Cl [Example 285]	100%	–	100%	–	–	–	–
–	Cc1cc(I)cc(C(=O)NC(C)C)c1NC(=O)c1cc(Cn2ncc(C(F)(F)F)n2)nn1-c1ncccc1Cl [Example 161]	100%	–	100%	3.73	–	–	–
–	Cc1cc(I)cc(C(=O)NC(C)C)c1NC(=O)c1cc(Cn2nc(C(F)(F)F)c(C(F)(F)F)n2)nn1-c1ncccc1Cl [Example 403]	100%	–	100%	4.47	–	–	–
–	Cc1cc(C#N)cc(C(=O)NC(C)(C)C)c1NC(=O)c1cc(Cn2cc(-c3cccc(Cl)c3)nn2)nn1-c1ncccc1Cl [Example 57]	100%	–	83%	3.55	–	–	–
–	Cc1cc(I)cc(C(=O)NC2CC2)c1NC(=O)c1cc(Cn2cc(C(F)(F)C(F)(F)C(F)(F)F)nn2)nn1-c1ncccc1Cl [Example 323]	–	–	–	–	100%	100%	3.82
4.11	Cc1cc(C#N)cc(C(=O)NC(C)C2CC2)c1NC(=O)c1cc(Cn2nc(C(F)(F)F)c(C(F)(F)F)n2)nn1-c1ncccc1Cl (stereo not drawn) [Example 413]	100%	–	100%	–	–	–	–
–	CNC(=O)c1cc(Cl)cc(C)c1NC(=O)c1cc(Cn2cc(-c3ccc(F)cc3)nn2)nn1-c1ncccc1Cl [Example 16]	100%	–	83%	2.84	–	–	–
–	CNC(=O)c1cc(Cl)cc(C)c1NC(=O)c1cc(Cn2nnc3c(Br)cc(OC(F)(F)F)cc32)nn1-c1ncccc1Cl [Example 90]	100%	–	100%	3.74	–	–	–
–	Cc1cc(Cl)cc(C(=O)NC2CCC2)c1NC(=O)c1cc(Cn2ncc(C(F)(F)F)n2)nn1-c1ncccc1Cl [Example 142]	100%	–	100%	3.64	–	–	–
2.93	Cc1cc(C#N)cc(C(=O)NC2CC2)c1NC(=O)c1cc(Cn2cc(C(F)(F)F)nn2)nn1-c1ccccc1Cl [Example 296]	100%	–	100%	–	–	–	–
3.39	Cc1cc(C#N)cc(C(=O)NC(C)C)c1NC(=O)c1cc(Cn2cc(-c3ccc(C(F)(F)F)cc3)nn2)nn1-c1ncccc1Cl [Example 4]	100%	–	100%	–	–	–	–

chromatographic logP [3, 4]	Structure (SMILES)	pest or weed control at 100 g/ha ([1]; 100 g/ha, after 7 days)	pest or weed control at 20 g/ha ([2]; 20 g/ha, after 7 days)	pest or weed control at 100 g/ha ([2]; 100 g/ha, after 7 days)	chromatographic logP [3]	pest or weed control at 100 g/ha [1]	pest or weed control at 100 g/ha [2]	chromatographic logP [3, 5]
–	CNC(=O)c1cc(Cl)cc(C)c1NC(=O)c1cc(Cn2cc(-c3ccccc3Cl)nn2)nn1-c1ncccc1Cl [Example 19]	100%	–	100%	2.74	–	–	–
–	Cc1cc(C#N)cc(C(=O)NC(C)(C)C)c1NC(=O)c1cc(Cn2ncc(-c3cccc(Cl)c3)n2)nn1-c1ncccc1Cl [Example 65]	100%	–	100%	4.14	–	–	–
–	CNC(=O)c1cc(I)cc(C)c1NC(=O)c1cc(Cn2cc(C(F)(C(F)(F)F)C(F)(F)F)nn2)nn1-c1ncccc1Cl [Example 233]	100%	–	100%	3.59	–	–	–
–	CNC(=O)c1cc(Cl)cc(C)c1NC(=O)c1cc(Cn2ncc(-c3ccc(Cl)cc3)n2)nn1-c1ncccc1Cl [Example 25]	100%	–	100%	3.62	–	–	–
–	Cc1cc(I)cc(C(=O)NC2CC2)c1NC(=O)c1cc(Cn2nc(C(F)(F)F)c(C(F)(F)F)n2)nn1-c1ncccc1Cl [Example 390]	100%	–	100%	4.19	–	–	–
4.43	Cc1cc(I)cc(C(=O)NC(C)(C)C)c1NC(=O)c1cc(Cn2cc(C(F)(C(F)(F)F)C(F)(F)F)nn2)nn1-c1ncccc1Cl [Example 236]	100%	–	100%	–	–	–	–
3.45	CNC(=O)c1cc(Cl)cc(C)c1NC(=O)c1cc(Cn2ncc(C(F)(F)F)n2)nn1-c1ccccc1Cl [Example 287]	100%	–	100%	–	–	–	–
–	CCNC(=O)c1cc(Cl)cc(Cl)c1NC(=O)c1cc(Cn2ncc(C(F)(F)F)n2)nn1-c1ncccc1Cl [Example 149]	100%	–	100%	3.2	–	–	–
–	Cc1cc(I)cc(C(=O)NC2CC2)c1NC(=O)c1cc(Cn2cc(C(F)(F)C(F)(F)F)nn2)nn1-c1ncccc1Cl [Example 310]	100%	–	100%	3.49	–	–	–
4.23	O=C(NCC1CC1)c1cc(Cl)cc(Cl)c1NC(=O)c1cc(Cn2ncc(C(F)(C(F)(F)F)C(F)(F)F)n2)nn1-c1ncccc1Cl [Example 277]	100%	–	100%	–	–	–	–
–	Cc1cc(I)cc(C(=O)NC2CC2)c1NC(=O)c1cc(Cn2ncc(C(F)(F)C(F)(F)F)n2)nn1-c1ncccc1Cl [Example 347]	100%	–	100%	3.86	–	–	–
–	Cc1cc(I)cc(C(N)=O)c1NC(=O)c1cc(Cn2ncc(C(F)(F)C(F)(F)F)n2)nn1-c1ncccc1Cl [Example 354]	100%	–	100%	3.33	–	–	–
4.14	Cc1cc(I)cc(C(=O)NCC2CC2)c1NC(=O)c1cc(Cn2cc(C(F)(C(F)(F)F)C(F)(F)F)nn2)nn1-c1ncccc1Cl [Example 237]	100%	–	100%	–	–	–	–
–	CNC(=O)c1cc(C#N)cc(C)c1NC(=O)c1cc(Cn2nnc3c(Cl)c(Cl)c(Cl)c(Cl)c32)nn1-c1ncccc1Cl [Example 92]	100%	–	100%	3.79	–	–	–
–	CNC(=O)c1cc(Cl)cc(C)c1NC(=O)c1cc(Cn2cc(-c3ccc(Cl)cc3Cl)nn2)nn1-c1ncccc1Cl [Example 18]	100%	–	100%	3.2	–	–	–
–	CCNC(=O)c1cc(Cl)cc(C)c1NC(=O)c1cc(Cn2ncc(C(F)(F)C(F)(F)C(F)(F)F)n2)nn1-c1ncccc1Cl [Example 367]	–	–	–	–	100%	100%	4.03
3.63	Cc1cc(C#N)cc(C(=O)NC2CC2)c1NC(=O)c1cc(Cn2ncc(C(F)(C(F)(F)F)C(F)(F)F)n2)nn1-c1ncccc1Cl [Example 256]	100%	–	100%	–	–	–	–
–	CNC(=O)c1cc(Cl)cc(C)c1NC(=O)c1cc(Cn2nc3ccc(C(F)(F)F)cc3n2)nn1-c1ncccc1Cl [Example 74]	100%	–	100%	3.48	–	–	–
–	Cc1cc(Cl)cc(C(=O)NCC2CC2)c1NC(=O)c1cc(Cn2nc(C(F)(F)F)c(C(F)(F)F)n2)nn1-c1ncccc1Cl [Example 406]	100%	–	100%	4.29	–	–	–
